# Source: patent US12421210B2, “Fused bicyclic heterocycles as therapeutic agents” (NEW YORK UNIVERSITY, priority 2018, dated 2025)
# Target: human NAMPT enzyme (His-hNAMPT) (Homo sapiens (Human), UniProt P43490)
# Test: NAMPT enzymatic inhibition assay (fluorescence, NADH product)
# Type: biochemical
# Settings: [BPS]; read-out: NAMPT IC50 (μM) [BPS]
# Description: The compounds were then diluted 20 fold in an intermediate dilution to 5% DMSO and water. Finally 10 μL of each compound was added to the assay plate, in duplicate, with highest concentration at 30 μM and the lowest at 0.001 μM in a final volume of 50 μL and 1% DMSO concentration. Each assay also tested, in parallel, two reference compounds, FK866 and GMX1778, with highest concentration at 10 μM and lowest at 0.0003 μM. 200 ng of human NAMPT enzyme (His-hNAMPT obtained from E. coli expression system) diluted in […] (tris-buffered saline-Polysorbate 20) 1× was added to each well in a volume of 10 μL and the compounds were incubated with the enzyme at room temperature for 20 minutes. After the incubation, 30 μL of master mixture were added to each well. The master mixture contained: 50 mM Tris-HCl, pH 8.0, 12.5 mM MgCl2, 20 μM nicotinamide, 40 μM phosphoribosyl pyrophosphate (PRPP), 20 μM adenosine triphosphate (ATP), 30 μg/mL of alcohol dehydrogenase, 10 μg/mL of NMNAT, 1.5% alcohol, 1 mM dithiothreitol (DTT), 0.02% bovine serum albumin (BSA), 0.01% Tween 20. The reaction was performed at 30° C. for 60 minutes. Fluorescence intensity was measured at an excitation of 340 nm and an emission of 460 nm using a Tecan Infinite M1000 microplate reader. The fluorescence values indicated increase of NADH product.
# Enzyme activity assay was performed in duplicate at each concentration. The fluorescence data was analyzed and compared. In the absence of the compound, the intensity (Ce) in each data set was defined as 100% activity. In the absence of enzyme, the intensity (C0) in each data set was defined as 0% activity. The percent activity in the presence of each compound was calculated according to the following equation: % activity=(C−C0)/(Ce−C0), where C is the fluorescence in the presence of the compound.
# The % activity vs. compound concentrations were then plotted using non-linear regression analysis of Sigmoidal dose-response curve generated with the equation Y=B+(T−B)/1+10^((Log EC50-X)×Hill Slope), where Y is percent activity, B is minimum percent activity, T is maximum percent activity, X is logarithm of compound and Hill Slope=slope factor or Hill coefficient.
# Sequence of human NAMPT enzyme (His-hNAMPT) (P43490 whole entry): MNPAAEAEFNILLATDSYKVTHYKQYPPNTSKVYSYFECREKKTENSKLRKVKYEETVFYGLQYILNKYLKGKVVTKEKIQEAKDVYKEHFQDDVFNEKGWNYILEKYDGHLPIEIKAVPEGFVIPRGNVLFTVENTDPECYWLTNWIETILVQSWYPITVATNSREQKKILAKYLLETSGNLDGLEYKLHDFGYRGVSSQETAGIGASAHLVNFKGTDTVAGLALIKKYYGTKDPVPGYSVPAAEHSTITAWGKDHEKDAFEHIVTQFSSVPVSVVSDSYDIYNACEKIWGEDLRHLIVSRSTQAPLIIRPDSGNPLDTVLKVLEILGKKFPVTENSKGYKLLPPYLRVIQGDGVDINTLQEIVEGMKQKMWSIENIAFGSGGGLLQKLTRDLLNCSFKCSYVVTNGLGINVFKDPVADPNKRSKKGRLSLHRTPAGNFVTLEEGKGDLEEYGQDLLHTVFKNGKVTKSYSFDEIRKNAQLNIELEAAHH
row,IC50,SMILES
1,0.01 to 0.49 µM,"CC(C)(C)OC(=O)N1C[C@@H]2[C@@H](CCNC(=NC#N)Nc3ccncc3)[C@@H]2C1 [Example 18, (1R,5S,6s)-tert-butyl 6-(2-((E)-2-cyano-3-(pyridin-4-yl)guanidino)ethyl)-3-azabicyclo[3.1.0]hexane-3-carboxylate]"
2,0.01 to 0.49 µM,"CC(C)(C)OC(=O)N1C[C@@H]2[C@@H](CCNC(=O)NCc3cccnc3)[C@@H]2C1 [Example 19, (1R,5S,6s)-tert-butyl 6-(2-(3-((pyridin-3-yl)methyl)ureido)ethyl)-3-azabicyclo[3.1.0]hexane-3-carboxylate]"
3,0.01 to 0.49 µM,"CC(C)(C)OC(=O)N1C[C@@H]2[C@@H](CCNC(=O)N3Cc4ccncc4C3)[C@@H]2C1 [Example 20, (1R,5S,6s)-tert-butyl 6-(2-(2,3-dihydro-1H-pyrrolo[3,4-c]pyridine-2-carboxamido)ethyl)-3-azabicyclo[3.1.0]hexane-3-carboxylate]"
4,0.01 to 0.49 µM,"CC1(OC(=O)N2C[C@@H]3[C@@H](CCNC(=O)/C=C/c4cccnc4)[C@@H]3C2)COC1 [Example 21, (1R,5S,6s)-3-methyloxetan-3-yl 6-(2-((E)-3-(pyridin-3-yl)acrylamido)ethyl)-3-azabicyclo[3.1.0]hexane-3-carboxylate]"
5,0.01 to 0.49 µM,"O=C(/C=C/c1cccnc1)NCC[C@@H]1[C@H]2CN(C(=O)c3ccccc3)C[C@@H]12 [Example 22, (E)-N-(2-((1R,5S,6s)-3-benzoyl-3-azabicyclo[3.1.0]hexan-6-yl)ethyl)-3-(pyridin-3-yl)acrylamide]"
6,0.01 to 0.49 µM,"O=C(/C=C/c1cccnc1)NCC[C@@H]1[C@H]2CN(S(=O)(=O)c3ccccc3)C[C@@H]12 [Example 23, (E)-N-(2-((1R,5S,6s)-3-(phenylsulfonyl)-3-azabicyclo[3.1.0]hexan-6-yl)ethyl)-3-(pyridin-3-yl)acrylamide]"
7,0.01 to 0.49 µM,"CC1(OC(=O)N2C[C@@H]3[C@@H](CCNC(=O)/C=C/c4ccc(N)nc4)[C@@H]3C2)COC1 [Example 24, (1R,5S,6s)-3-methyloxetan-3-yl 6-(2-((E)-3-(6-aminopyridin-3-yl)acrylamido)ethyl)-3-azabicyclo[3.1.0]hexane-3-carboxylate]"
8,0.01 to 0.49 µM,"Nc1ccc(/C=C/C(=O)NCC[C@@H]2[C@H]3CN(C(=O)c4ccccc4)C[C@@H]23)cn1 [Example 25, (E)-3-(6-aminopyridin-3-yl)-N-(2-((1R,5S,6s)-3-benzoyl-3-azabicyclo[3.1.0]hexan-6-yl)ethyl)acrylamide]"
9,0.01 to 0.49 µM,"CC1(OC(=O)N2C[C@@H]3[C@@H](CCNC(=O)c4cc5ccncc5s4)[C@@H]3C2)COC1 [Example 26, (1R,5S,6s)-3-methyloxetan-3-yl 6-(2-(thieno[2,3-c]pyridine-2-carboxamido)ethyl)-3-azabicyclo[3.1.0]hexane-3-carboxylate]"
10,0.01 to 0.49 µM,"CC1(OC(=O)N2C[C@@H]3[C@@H](CCNC(=O)c4cc5ccncc5o4)[C@@H]3C2)COC1 [Example 27, (1R,5S,6s)-3-methyloxetan-3-yl 6-(2-(furo[2,3-c]pyridine-2-carboxamido)ethyl)-3-azabicyclo[3.1.0]hexane-3-carboxylate]"
11,0.01 to 0.49 µM,"Nc1ccc(/C=C/C(=O)NCC[C@@H]2[C@H]3CN(C(=O)NCc4ccccc4)C[C@@H]23)cn1 [Example 28, (1R,5S,6s)-6-(2-((E)-3-(6-aminopyridin-3-yl)acrylamido)ethyl)-N-benzyl-3-azabicyclo[3.1.0]hexane-3-carboxamide]"
12,0.01 to 0.49 µM,"Nc1ccc(/C=C/C(=O)NCC[C@@H]2[C@H]3CN(C(=O)N4CCOCC4)C[C@@H]23)cn1 [Example 29, (E)-3-(6-aminopyridin-3-yl)-N-(2-((1R,5S,6s)-3-(morpholine-4-carbonyl)-3-azabicyclo[3.1.0]hexan-6-yl)ethyl)acrylamide]"
13,0.01 to 0.49 µM,"O=C(NCC[C@@H]1[C@H]2CN(C(=O)c3ccccc3)C[C@@H]12)c1cc2ccncc2o1 [Example 30, N-(2-((1R,5S,6s)-3-benzoyl-3-azabicyclo[3.1.0]hexan-6-yl)ethyl)furo[2,3-c]pyridine-2-carboxamide]"

# Further lines, the compound ahead of its results:
row,SMILES,IC50
1,CC(C)(C)OC(=O)N1C[C@@H]2[C@@H](CCNC(=O)c3cc4ccncc4s3)[C@@H]2C1 [Example 3],0.01 to 0.49 µM
2,"CC(C)(C)OC(=O)N1C[C@@H]2[C@@H](CCNC(=O)/C=C/c3ccc(N)nc3)[C@@H]2C1 [Example 4, (1R,5S,6s)-tert-butyl 6-(2-((E)-3-(6-aminopyridin-3-yl)acrylamido)ethyl)-3-azabicyclo[3.1.0]hexane-3-carboxylate]",0.01 to 0.49 µM
3,CC(C)(C)OC(=O)N1C[C@@H]2[C@@H](CCNC(=O)c3cc4ccncc4o3)[C@@H]2C1 [Example 5],0.01 to 0.49 µM
4,"CC(C)(C)OC(=O)N1C[C@@H]2[C@@H](CCNC(=O)c3ccc4sccc4c3)[C@@H]2C1 [Example 6, (1R,5S,65s)-tert-butyl 6-(2-(benzo[b]thiophene-5-carboxamido)ethyl)-3-azabicyclo[3.1.0]hexane-3-carboxylate]",0.01 to 0.49 µM
5,"CC(C)(C)OC(=O)N1C[C@@H]2[C@@H](CCNC(=O)c3ccc4nccn4c3)[C@@H]2C1 [Example 7, (1R,5S,6s)-tert-butyl 6-(2-(imidazo[1,2-a]pyridine-6-carboxamido)ethyl)-3-azabicyclo[3.1.0]hexane-3-carboxylate]",0.01 to 0.49 µM
6,"CC(C)(C)OC(=O)N1C[C@@H]2[C@@H](CCNC(=O)C(C)(C)C)[C@@H]2C1 [Example 8, (1R,5S,6s)-tert-butyl 6-(2-pivalamidoethyl)-3-azabicyclo[3.1.0]hexane-3-carboxylate]",> 30 µM
7,"CC(C)(C)OC(=O)N1C[C@@H]2[C@@H](CCNC(=O)[C@H]3C[C@@H]3c3cccnc3)[C@@H]2C1 [Example 10, (1R,5S,6s)-tert-butyl 6-(2-((1R,2R)-2-(pyridin-3-yl)cyclopropanecarbox-amido)ethyl)-3-azabicyclo[3.1.0]hexane-3-carboxylate]",0.01 to 0.49 µM
8,"CC(C)(C)OC(=O)N1C[C@@H]2[C@@H](CCNC(=O)c3nc4ccncc4s3)[C@@H]2C1 [Example 11, (1R,5S,6s)-tert-butyl 6-(2-(thiazolo[5,4-c]pyridine-2-carboxamido)ethyl)-3-azabicyclo[3.1.0]hexane-3-carboxylate]",0.5 to 0.99 µM
9,"CC(C)(C)OC(=O)N1C[C@@H]2[C@@H](CCNC(=O)c3cc(-c4cccnc4)on3)[C@@H]2C1 [Example 12, (1R,5S,6s)-tert-butyl 6-(2-(5-(pyridin-3-yl)isoxazole-3-carboxamido)ethyl)-3-azabicyclo[3.1.0]hexane-3-carboxylate]",< 0.01 µM
10,"CC(=O)NCC[C@@H]1[C@H]2CN(C(=O)OC(C)(C)C)C[C@@H]12 [Example 14, (1R,5S,6s)-tert-butyl 6-(2-azetamidoethyl)-3-azabicyclo[3.1.0]hexane-3-carboxylate]",> 30 µM
11,"CC(C)(C)OC(=O)N1C[C@@H]2[C@@H](CCNC(=O)N3Cc4ccccc4C3)[C@@H]2C1 [Example 15, (1R,5S,6s)-tert-butyl 6-(2-(isoindoline-2-carboxamido)ethyl)-3-azabicyclo[3.1.0]hexane-3-carboxylate]",0.01 to 0.49 µM
12,"CC(C)(C)OC(=O)N1C[C@@H]2[C@@H](CCNC(=O)N3CCc4sccc4C3)[C@@H]2C1 [Example 16, (1R,5S,6s)-tert-butyl 6-(2-(4,5,6,7-tetrahydrothioeno[3,2-c]pyridine-5-carboxamido)ethyl)-3-azabicyclo[3.1.0]hexane-3-carboxylate]",0.01 to 0.49 µM
13,"CC(C)(C)OC(=O)N1C[C@@H]2[C@@H](CCNC(=O)N3CC(c4cccnc4)C3)[C@@H]2C1 [Example 17, (1R,5S,6s)-tert-butyl 6-(2-(3-(pyridin-3-yl)azetidine-1-carboxamido)ethyl)-3-azabicyclo[3.1.0]hexane-3-carboxylate]",0.01 to 0.49 µM

# Same assay, conditions: [HDB]; read-out: NAMPT IC50 (μM) [HDB]
row,IC50,SMILES
1,0.01 to 0.49 µM,"O=C(/C=C/c1cccnc1)NCC[C@@H]1[C@H]2CN(S(=O)(=O)c3ccccc3)C[C@@H]12 [Example 23, (E)-N-(2-((1R,5S,6s)-3-(phenylsulfonyl)-3-azabicyclo[3.1.0]hexan-6-yl)ethyl)-3-(pyridin-3-yl)acrylamide]"
2,0.01 to 0.49 µM,"Nc1ccc(/C=C/C(=O)NCC[C@@H]2[C@H]3CN(C(=O)c4ccccc4)C[C@@H]23)cn1 [Example 25, (E)-3-(6-aminopyridin-3-yl)-N-(2-((1R,5S,6s)-3-benzoyl-3-azabicyclo[3.1.0]hexan-6-yl)ethyl)acrylamide]"
3,0.01 to 0.49 µM,"O=C(NCC[C@@H]1[C@H]2CN(C(=O)c3ccccc3)C[C@@H]12)c1cc2ccncc2o1 [Example 30, N-(2-((1R,5S,6s)-3-benzoyl-3-azabicyclo[3.1.0]hexan-6-yl)ethyl)furo[2,3-c]pyridine-2-carboxamide]"

# Second part, the compound before the results:
row,SMILES,IC50
1,"Cc1noc2ncc(/C=C/C(=O)NCC[C@@H]3[C@H]4CN(C(=O)OC(C)(C)C)C[C@@H]34)cc12 [Example 9, tert-butyl (1R,5S,6s)-6-(2-((E)-3-(3-methylisoxazolo[5,4-b]pyridin-5-yl)acrylamido)ethyl)-3-azabicyclo[3.1.0]hexane-3-carboxylate]",0.01 to 0.49 µM
2,"CC(C)(C)OC(=O)N1C[C@@H]2[C@@H](CCNC(=O)c3cc4cc(N)ncc4s3)[C@@H]2C1 [Example 13, (1R,5S,6s)-tert-butyl 6-(2-(5-aminothieno[2,3-c]pyridine-2-carboxamido)ethyl)-3-azabicyclo[3.1.0]hexane-3-carboxylate]",0.01 to 0.49 µM
3,"CC(C)(C)OC(=O)N1C[C@@H]2[C@@H](CCNC(=O)N3CC(c4cccnc4)C3)[C@@H]2C1 [Example 17, (1R,5S,6s)-tert-butyl 6-(2-(3-(pyridin-3-yl)azetidine-1-carboxamido)ethyl)-3-azabicyclo[3.1.0]hexane-3-carboxylate]",< 0.01 µM
